Assay results reported in US10519177B2, “Heterocyclic compounds and uses thereof” (Plexxikon Inc., priority 2013, dated 2019).
Where two headings read alike, the source gives them in different places.

Legend:
bromodomain = test: at least one of the bromodomain cell assays of Example 57; assay type: cell-based; conditions: at least one of the bromodomain cell assays described in Example 57; read-out: IC50 in at least one of the bromodomain cell assays
BRD4-BD12 (1-477) = BRD4-BD12 (1-477) (Homo sapiens (Human), UniProt O60885); test: Alphascreen binding assay BRD4-BD12; conditions: BRD4(1 2) H4; read-out: Biochemical activity (IC50 μM) BRD4(1 2) H4
Summary of the method: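 First, compound was preincubated 1 h at room temperature with the His-tagged BRD4 protein (BD1 44-164 or tandem BD12 1-477) and acetylated H4 peptide. Next, donor and acceptor beads were added at 7.5 μg/ml final. After 30 min, AlphaScreen emission was recorded.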

MV-4-11 cells = test: Oncology cell growth assay MV-4-11 (CellTiter Glo); assay type: cell-based; conditions: Homo sapiens, MV4-11, 72 h, read-out: Cell activity (IC50 μM) MV-4-11 3d-Growth
Summary of the method: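 MV-4-11 AML cells (MLL-AF4), 3000 per well, exposed to 8-point 1:3 compound titration from 10 μM top concentration (0.2% DMSO) for 72 h. Viability by CellTiter Glo luminescence, normalized to DMSO controls; pIC50 from four-parameter curve fit.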

| Compound | IC50 (bromodomain) [µM] | IC50 (BRD4-BD12 (1-477)) [µM] | IC50 (MV-4-11 cells; MV-4-11, 3d growth) [µM] | IC50 (MV-4-11 cells) [µM] |
| --- | --- | --- | --- | --- |
| Cc1noc(C)c1-c1cnc2c(-c3ccc(C(=O)O)cc3)cn(Cc3cccnn3)c2c1 [P-0540, 4-[6-(3,5-dimethylisoxazol-4-yl)-1-(pyridazin-3-ylmethyl)pyrrolo[3,2-b]pyridin-3-yl]benzoic acid] | < 10 | < 1 | < 1 | – |
| COc1cc(-c2cn(CC3(F)CCCCC3)c3cc(-c4c(C)noc4C)cnc23)ccc1C(=O)O [P-0504, 4-[6-(3,5-dimethylisoxazol-4-yl)-1-[(1-fluorocyclohexyl)methyl]pyrrolo[3,2-b]pyridin-3-yl]-2-methoxy-benzoic acid] | < 10 | < 1 | < 1 | – |
| Cc1noc(C)c1-c1cnc2c(-c3ccc(C(=O)O)c(F)c3)cn(CC3(F)CCCCC3)c2c1 [P-0469, 4-[6-(3,5-dimethylisoxazol-4-yl)-1-[(1-fluorocyclohexyl)methyl]pyrrolo[3,2-b]pyridin-3-yl]-2-fluoro-benzoic acid] | < 10 | < 1 | < 1 | – |
| Cc1noc(C)c1-c1cnc2c(-c3ccc4[nH]c(=O)[nH]c4c3)cn(CC3(F)CCCCC3)c2c1 [P-0498, 5-[6-(3,5-dimethylisoxazol-4-yl)-1-[(1-fluorocyclohexyl)methyl]pyrrolo[3,2-b]pyridin-3-yl]-1,3-dihydrobenzimidazol-2-one] | < 10 | < 1 | < 1 | – |
| Cc1noc(C)c1-c1cnc2c(-c3ccc(C(=O)O)c(F)c3)cn(CC3CCC(F)(F)CC3)c2c1 [P-0406, 4-[1-[(4,4-difluorocyclohexyl)methyl]-6-(3,5-dimethylisoxazol-4-yl)pyrrolo[3,2-b]pyridin-3-yl]-2-fluoro-benzoic acid] | < 10 | < 1 | – | < 1 |
| Cc1noc(C)c1-c1cnc2c(-c3cnn(C(F)F)c3)cn([C@@H](C)c3ccc(F)cc3)c2c1 [P-0355, 4-[3-[1-(difluoromethyl)pyrazol-4-yl]-1-[(1S)-1-(4-fluorophenyl)ethyl]pyrrolo[3,2-b]pyridin-6-yl]-3,5-dimethyl-isoxazole] | < 10 | < 1 | – | < 1 |
| Cc1ccc(-c2cn(CC3CCC(F)(F)CC3)c3cc(-c4c(C)noc4C)cnc23)cc1 [P-0604, 4-[1-[(4,4-difluorocyclohexyl)methyl]-3-(p-tolyl)pyrrolo[3,2-b]oyridin-6-yl]-3,5-dimethyl-isoxazole] | < 10 | < 1 | < 1 | – |
| Cc1noc(C)c1-c1cnc2c(-c3ccc(C(=O)O)cc3)cn(CC3CC(F)(F)C3)c2c1 [P-0432, 4-[1-[(3,3-difluorocyclobutyl)methyl]-6-(3,5-dimethylisoxazol-4-yl)pyrrolo[3,2-b]pyridin-3-yl]benzoic acid] | < 10 | < 1 | < 1 | – |
| [2H]C([2H])(C1CC(F)(F)C1)n1cc(-c2cn[nH]c2)c2ncc(-c3c(C)noc3C)cc21 [P-0255, 4-[1-[dideuterio-(3,3-difluorocyclobutyl)methyl]-3-(1H-pyrazol-4-yl)pyrrolo[3,2-b]pyridin-6-yl]-3,5-dimethyl-isoxazole] | < 10 | < 1 | – | < 1 |
| Cc1noc(C)c1-c1cnc2c(-c3ccc(C(=O)O)nc3)cn(CC3(F)CCCCC3)c2c1 [P-0455, 5-[6-(3,5-dimethylisoxazol-4-yl)-1-[(1-fluorocyclohexyl)methyl]pyrrolo[3,2-b]pyridin-3-yl]pyridine-2-carboxlic acid] | < 10 | < 1 | < 1 | – |
| Cc1noc(C)c1-c1cnc2c(-c3ccc(F)c(C(=O)O)c3)cn(CC3(F)CCCCC3)c2c1 [P-0467, 5-[6-(3,5-dimethylisoxazol-4-yl)-1-[(1-fluorocyclohexyl)methyl]pyrrolo[3,2-b]pyridin-3-yl]-2-fluoro-benzoic acid] | < 10 | < 1 | < 1 | – |
| Cc1noc(C)c1-c1cnc2c(-c3ccc(C(=O)O)cc3F)cn(CC3CCC(F)(F)CC3)c2c1 [P-0417, 4-[1-[(4,4-difluorocyclohexyl)methyl]-6-(3,5-dimethylisoxazol-4-yl)pyrrolo[3,2-b]pyridin-3-yl]-3-fluoro-benzoic acid] | < 10 | < 1 | – | < 1 |
| Cc1noc(C)c1-c1cnc2c(-c3ccc(C(=O)OC(C)C)cc3)cn(CC3CCCCC3)c2c1 [P-0708, isopropyl 4-[1-(cyclohexylmethyl)-6-(3,5-dimethylisoxazol-4-yl)pyrrolo[3,2-b]pyridin-3-yl]benzoate] | < 10 | < 1 | < 1 | – |
| Cc1noc(C)c1-c1cnc2c(-c3ccc(C(=O)O)cc3)cn(CC3(C)CCOCC3)c2c1 [P-0774, 4-[6-(3,5-dimethylisoxazol-4-yl)-1-[(4-methyltetrahydropyran-4-yl)methyl]pyrrolo[3,2-b]pyridin-3-yl]benzoic acid] | < 10 | < 1 | < 1 | – |
| Cc1cc(-c2cn(CC3(F)CCCCC3)c3cc(-c4c(C)noc4C)cnc23)ccc1C(=O)O [P-0506, 4-[6-(3,5-dimethylisoxazol-4-yl)-1-[(1-fluorocyclohexyl)methyl]pyrrolo[3,2-b]pyridin-3-yl]-2-methyl-benzoic acid] | < 10 | < 1 | < 1 | – |
| Cc1noc(C)c1-c1cnc2c(-c3ccc(C(N)=O)cc3)cn(CC3CCC(F)(F)CC3)c2c1 [P-0389, 4-[1-[(4,4-difluorocyclohexyl)methyl]-6-(3,5-dimethylisoxazol-4-yl)pyrrolo[3,2-b]pyridin-3-yl]benzamide] | < 10 | < 1 | – | < 1 |
| CCOC(=O)c1ccc(-n2cc(CC3CCC(F)(F)CC3)c3cc(-c4c(C)noc4C)cnc32)c(F)c1 [P-0441, ethyl 4-[3-[(4,4-difluorocyclohexyl)methyl]-5-(3,5-dimethylisoxazol-4-yl)pyrrolo[2,3-b]pyridin-1-yl]-3-fluoro-benzoate] | < 10 | < 1 | 1 to 10 | – |
| Cc1noc(C)c1-c1cnc2c(-c3ccc(C(=O)O)cc3)cn(CC3(F)CCC(F)(F)CC3)c2c1 [P-0382, 4-[6-(3,5-dimethylisoxazol-4-yl)-1-[(1,4,4-trifluorocyclohexyl)methyl]pyrrolo[3,2-b]pyridin-3-yl]benzoic acid] | < 10 | < 1 | – | < 1 |
| Cc1noc(C)c1-c1cnc2c(-c3cnco3)cn(CC3CCC(F)(F)CC3)c2c1 [P-0400, 4-[1-[(4,4-difluorocyclohexyl)methyl]-3-oxazol-5-yl-pyrrolo[3,2-b]pyridin-6-yl]-3,5-dimethyl-isoxazole] | < 10 | < 1 | – | < 1 |
| Cc1noc(C)c1-c1cnc2c(-c3ccc(C(=O)O)cc3)cn(CC3CCCC3)c2c1 [P-0552, 4-[1-(cyclopentylmethyl)-6-(3,5-dimethylisoxazol-4-yl)pyrrolo[3,2-b]pyridin-3-yl]benzoic acid] | < 10 | < 1 | < 1 | – |
| Cc1noc(C)c1-c1cnc2c(-c3ccc(C#N)cc3)cn(CC3(F)CCCCC3)c2c1 [P-0457, 4-[6-(3,5-dimethylisoxazol-4-yl)-1-[(1-fluorocyclohexyl)methyl]pyrrolo[3,2-b]pyridin-3-yl]benzonitrile] | < 10 | < 1 | < 1 | – |
| Cc1noc(C)c1-c1cnc2c(I)cn(CC3CCC(F)(F)CC3)c2c1 [P-0250, 4-[1-[(4,4-difluorocyclohexyl)methyl]-3-iodo-pyrrolo[3,2-b]pyridin-6-yl]-3,5-dimethyl-isoxazole] | < 10 | < 1 | – | < 1 |
| Cc1noc(C)c1-c1cnc2c(-c3cnn(CC(=O)O)c3)cn(CC3(F)CCC(F)(F)CC3)c2c1 [P-0386, 2-[4-[6-(3,5-dimethylisoxazol-4-yl)-1-[(1,4,4-trifluorocyclohexyl)methyl]pyrrolo[3,2-b]pyridin-3-yl]pyrazol-1-yl]acetic acid] | < 10 | < 1 | – | 10 to 200 |
| Cc1ccc(-c2cn(CC3CCC(F)(F)CC3)c3cc(-c4c(C)noc4C)cnc23)cn1 [P-0397, 4-[1-[(4,4-difluorocyclohexyl)methyl]-3-(6-methyl-3-pyridyl)pyrrolo[3,2-b]pyridin-6-yl]-3,5-dimethyl-isoxazole] | < 10 | < 1 | – | < 1 |
| Cc1noc(C)c1-c1cnc2c(-c3cnn(CC(F)(F)F)c3)cn([C@H](C)c3ccc(F)cc3)c2c1 [P-0351, 4-[1-[(1R)-1-(4-fluorophenyl)ethyl]-3-[1-(2,2,2-trifluoroethyl)pyrazol-4-yl]pyrrolo[3,2-b]pyridin-6-yl]-3,5-dimethyl-isoxazole] | < 10 | < 1 | – | < 1 |
| Cc1ccc(-c2cn(CC3(F)CCCCC3)c3cc(-c4c(C)noc4C)cnc23)cn1 [P-0463, 4-[1-[(1-fluorocyclohexyl)methyl]-3-(6-methyl-3-pyridyl)pyrrolo[3,2-b]pyridin-6-yl]-3,5-dimethyl-isoxazole] | < 10 | < 1 | < 1 | – |
| Cc1noc(C)c1-c1cnc2c(-c3cnn(CC(F)(F)F)c3)cn(CC3CCCCC3)c2c1 [P-0553, 4-[1-(cyclohexylmethyl)-3-[1-(2,2,2-trifluoroethyl)pyrazol-4-yl]pyrrolo[3,2-b]pyridin-6-yl]-3,5-dimethyl-isoxazole] | < 10 | < 1 | < 1 | – |
